Test results taken from PubChem BioAssay (NCI).
Where “and” joins values, the source holds several entries; their conditions need not be identical. Equal entries are not always repeated.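 Exposure lasted 48 hours, with cells grown in 96-well plates and compounds tested at five concentrations. GI50 = concentration required for 50% inhibition of growth. Definition used: TGI = concentration required for complete inhibition of growth.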

Legend:
Assay in all cases: NCI anticancer screen, dose series, 48 h
T-47D breast = system: T-47D breast
EKVX NSCLC = system: EKVX NSCLC
OVCAR-5 ovarian = system: OVCAR-5 ovarian
IGROV1 ovarian = system: IGROV1 ovarian
CAKI-1 renal = system: CAKI-1 renal
CCRF-CEM leukemia = system: CCRF-CEM leukemia
786-0 renal = system: 786-0 renal
HOP-62 NSCLC = system: HOP-62 NSCLC
SK-MEL-5 melanoma = system: SK-MEL-5 melanoma
HOP-92 NSCLC = system: HOP-92 NSCLC

| Structure (SMILES) | GI50 (T-47D breast) | TGI (T-47D breast) | GI50 (EKVX NSCLC) | TGI (EKVX NSCLC) | GI50 (OVCAR-5 ovarian) | TGI (OVCAR-5 ovarian) | GI50 (IGROV1 ovarian) | TGI (IGROV1 ovarian) | GI50 (CAKI-1 renal) | TGI (CAKI-1 renal) | GI50 (CCRF-CEM leukemia) | TGI (CCRF-CEM leukemia) | GI50 (786-0 renal) | TGI (786-0 renal) | GI50 (HOP-62 NSCLC) | TGI (HOP-62 NSCLC) | GI50 (SK-MEL-5 melanoma) | TGI (SK-MEL-5 melanoma) | GI50 (HOP-92 NSCLC) | TGI (HOP-92 NSCLC) |
| --- | --- | --- | --- | --- | --- | --- | --- | --- | --- | --- | --- | --- | --- | --- | --- | --- | --- | --- | --- | --- |
| CSC1=Nc2c(c(C)c(C)n2COC(CO)CO)C2=NC(=O)C(C)N12 (stereo not drawn) | > 100 µM | > 100 µM | > 100 µM | > 100 µM | > 100 µM | > 100 µM | 39.6 µM | > 100 µM | > 100 µM | > 100 µM | > 100 µM | > 100 µM | > 100 µM | > 100 µM | > 100 µM | > 100 µM | > 100 µM | > 100 µM | > 100 µM | > 100 µM |
| COc1cccc2c1C(=O)c1c(O)c3c(c(O)c1C2=O)C[C@@](O)(C(=O)CO)C[C@@H]3OC1CC(N)CC(C)O1 (stereo partly drawn) | 0.067 µM | 1.13 µM and 0.696 µM | 0.152 µM | 0.839 µM and 0.61 µM | 0.116 µM | 0.775 µM and 0.799 µM | 0.0504 µM and 0.0436 µM | 1.25 µM and 1.6 µM | 0.00936 µM and 0.00812 µM and 0.0263 µM | 0.119 µM and 0.377 µM | < 0.0125 µM | 0.374 µM and 0.159 µM | 0.02 µM | 0.514 µM and 0.568 µM | 0.0175 µM | 0.326 µM and 0.0977 µM | 0.00743 µM and 0.025 µM | 0.145 µM and 0.203 µM | 0.0638 µM | 0.275 µM and 0.353 µM |
| C/C=C/C(CC(O)(C(F)(F)F)C(F)(F)F)=N/NC(N)=S | – | > 10 µM | – | > 10 µM | – | > 10 µM | – | > 10 µM | – | > 10 µM | – | > 10 µM | – | > 10 µM | – | > 10 µM | – | > 10 µM | – | > 10 µM |
| CCCCC#CC1=C(Br)C(=O)OC1 | 5.79 µM | > 31.6 µM | 3.79 µM | 10.7 µM | 2.73 µM | 7.38 µM | 0.368 µM | 3.33 µM | 1.26 µM | 4.63 µM | 0.261 µM | – | 2 µM | 5.14 µM | 7.13 µM | 20.8 µM | 0.118 µM | 0.366 µM | 2.04 µM | 18.7 µM |
| CCN1CCN(C(=O)[C@@]2(C)CC[C@]3(C)CC[C@]4(C)C(=CC(=O)[C@@H]5[C@@]6(C)CC[C@H](OC7C[C@@H](O)[C@@H](O)C(C)O7)C(C)(C)[C@@H]6CC[C@]54C)[C@@H]3C2)CC1 (stereo partly drawn) | 9.57 µM | 23.1 µM | 3.51 µM | 10.4 µM | 1.19 µM | 3.12 µM | 1.68 µM | 6.39 µM | 7.81 µM | 14.8 µM | 1.52 µM | 50 µM | 0.933 µM | 1.82 µM | 2.39 µM | 10.8 µM | 1.56 µM | 4.6 µM | 5.25 µM | 12.5 µM |
| O=C(O)c1nnsc1-c1ccc(-c2snnc2C(=O)O)cc1 | – | > 100 µM | – | > 100 µM | – | > 100 µM | – | > 100 µM | – | > 100 µM | – | 9.63 µM | – | > 100 µM | – | > 100 µM | – | > 100 µM | – | > 100 µM |
| COc1ccccc1/C=N\N/C(N)=N\N=C\c1ccccc1OC | 0.457 µM | 7.36 µM | 0.574 µM | 14.3 µM | 3.36 µM | > 100 µM | 0.923 µM | – | 0.207 µM | 4.11 µM | 0.323 µM | 2.08 µM | 0.609 µM | 5.01 µM | 0.586 µM | 6.68 µM | 0.371 µM | 4.14 µM | 0.578 µM | 31.6 µM |
| COc1ccc(Sc2[nH]c(C(C)=O)c3ccccc23)cc1 | 8.41 µM | 36 µM | 8.13 µM | 26 µM | 17.3 µM | 53.1 µM | 11.8 µM | 43 µM | 2.86 µM | 24 µM | 14.3 µM | 40 µM | 16.5 µM | 34.8 µM | 12.7 µM | 25.3 µM | 12.5 µM | 24.9 µM | 2.4 µM | 18.1 µM |
